This passage reports GI50 and IC50 results from patent US20240245694A1, “Tricyclic Compounds and their Uses” (Novartis AG, priority 2022, published 2024).

One assay has as its system DLD1-WRN-KO cells. The experiment in a line: Proliferation assay DLD1-WRN-KO (CellTiterGlo, 96 hours), off-target effects. The note with it: Homo sapiens. In kind it is cell-based. The source says: (§1) The colon carcinoma cell lines SW48 (RRID: CVCL_1724), HCT 116 (RRID: CVCL_0291) and SNU-407 (RRID: CVCL_5058) were obtained from ATCC. The WRN-knockdown insensitive colon carcinoma cell line DLD-1 (RRID: CVCL_0248) was obtained from the Korean Cell Line Bank (KCLB), and used to generate a derivative in which the endogenous WRN gene copies were knocked out by CRISPR-mediated editing using standard CRISPR methods. The resulting cell line, DLD1-WRN-KO, was used to assess potential off-target compound effects.
(§2) SW48, SNU-407 and DLD1-WRN-KO cells were cultured in growth medium composed of RPMI-1640 (Amimed Cat #1-41F22-1), 2 mM L-Glutamine (Amimed Cat #5-10K50), 10 mM HEPES (Gibco Cat #15630-056), 1 mM sodium pyruvate (Amimed Cat #5-60F00-H), 1× Penicillin-Streptomycin (Amimed Cat #4-01F00-H) and 10% fetal calf serum (Amimed Cat #2-01F30-G, Lot #LB11566P). HCT 116 cells were cultured in growth medium composed of McCoys 5A (Amimed catalog #1-18F01-1), 2 mM L-Glutamine (Amimed Cat #5-10K50), 1× Penicillin-Streptomycin (Amimed Cat #4-01F00-H) and 10% fetal calf serum (Amimed Cat #2-01F30-G, Lot #LB11566P). All cells were maintained at 37° C. in a humidified 5% CO2 incubator.
(§3) Following filtration through a Steriflip-NY 20 μm filter (Millipore Cat #SCNY00020), trypsinized cells were seeded in 100 microliters growth medium at 2′000 (SW48) or 1′500 (SNU-407, DLD1-WRN-KO, HCT 116) cells/well into white, clear-bottom 96-well plates (Costar Cat #3903). Three replicate plates were prepared for each compound treatment condition. In addition, one plate (termed “day 0”) was prepared to quantify the number of viable cells at the time of compound addition. Following overnight incubation at 37° C. in a humidified 5% CO2 atmosphere, eight 3-fold serial dilutions of a given compound stock (obtained at a concentration of 10 mM in DMSO and stored at 4° C.) were dispensed directly into each of the triplicate assay plates using a HP 300D non-contact Digital Dispenser (TECAN). The final concentration of DMSO was normalized to 0.1% in all wells. 96 hours after compound addition, cellular ATP levels as a surrogate for cell viability was assessed following addition of 50 microliters CellTiterGlo (Promega Cat #G7573) reagent and luminescence quantification on a MPLEX multi-mode plate-reader (TECAN) following a 10 minute incubation at room temperature. The number of viable cells in the “day 0” plate were quantified identically on the day of compound addition.
(§4) For data analysis, the assay background signal that was determined in wells containing medium, but no cells, was subtracted from all other data points prior to further calculations. The extent of growth inhibition and potential cell kill was assessed by comparing the ATP levels (measured using CellTiterGlo, Promega) in compound-treated cells with those present at the time of compound addition. To this end, the following conditional concept was programmatically applied in HELIOS, an in-house software applying a multi-step decision tree to arrive at optimal concentration response curve fits (Gubler et al, SLAS DOI: 10.1177/2472555217752140) to calculate % growth (% G) for each compound-treated well: % G=(T−V0)/V0))*100 when T<V0, and % G=(T−V0)/(V−V0)))*100 when T>V0, where V0 is the viability level at time of compound addition, while V and T represent vehicle-control and compound-treated viability levels, respectively, at the end of the compound incubation. 100%, 0% and −100% signify absence of growth inhibition, growth stasis, and complete cell kill, respectively. Compound concentrations leading to half-maximal growth inhibition (G150) and residual cell viability at the highest tested compound concentration (Data (cmax), expressed in percent) were routinely calculated. Data analysis can also be carried out using commercially available software designed to derive IC50 values using 4-parameter fits (e.g. GraphPad Prism, XL fit). […]
(ATP-based viability assays read luminescence as a measure of living cells.)

Assay [1] addresses WRN helicase (core helicase motif aa N517-P1238) (Homo sapiens (Human), UniProt Q14191). The assay can be described thus: WRN ATPase assay (ADP-Glo), DNA dependent ATP hydrolysis. In kind it is biochemical. The note with it: 3 hours pre-incubation, 300 micromolar ATP, FLAP26 ssDNA; geometric means of at least 2 determinations. The text has this: An ATPase assay was set up to measure the DNA dependent ATP hydrolysis activity of WRN helicase. This assay was used also to assess the inhibition properties of compounds of the invention on DNA dependent WRN ATPase activity.
The core helicase motif of the WRN protein (aa N517-P1238) was produced for this assay (protein production as described above). A 45 oligonucleotide sequence called “FLAP26” as described by Brosh et al., 2009, DOI: 10.1074/jbc.M111446200 ([…]; SEQ ID NO: 2) was purchased from IDT (Integrated DNA Technologies, Leuven, Belgium) and used as single strand DNA substrate. The ADP-Glo assay kit (Promega, Madison, WI) allowing the quantification of ADP produced in ATP hydrolysis reactions was used for setting up this assay. Time course experiments were first performed in order to determine the best enzymatic assay conditions (including buffer conditions, reaction time and concentrations of protein, ATP and DNA substrates). A typical reaction consists of 10 nM WRN protein, 0.2 nM FLAP26, and 300 micromolar ATP in the following assay buffer: 30 mM Tris pH7.5, 2 mM MgCl2, 0.02% BSA, 50 mM NaCl, 0.1% pluronic F127 prepared in DNAse free water.
To evaluate the inhibition properties of compounds of the invention, serial dilutions were prepared in DMSO (10 half log dilutions from a 10 mM DMSO solution). 50 nanoliters of each concentration was pre-incubated for 3 hours in a 384 small volume assay plate (Greiner #784075) with 2.5 microliters of a 20 nM WRN helicase protein in assay buffer with 600 micromolar ATP. Control wells were included with a “high control” (no inhibition), containing DMSO with no test compound, and “low controls” (maximal inhibition), containing buffer without protein. The reaction was started by addition of 2.5 microliters of FLAP26 at 0.4 nM and incubated for 30 minutes at room temperature. The reaction was stopped with the addition of 5 microliters of the first ADP-Glo reagent and incubated for one hour to remove the excess amount of ATP. Afterwards, 10 microliters of ATP detection reagent was added and incubated for an additional hour before reading. Luminescence output was recorded using Tecan 1000 reader, with 5 minutes delay before reading. Each concentration of compound was tested in duplicates in the assay plate.
Data analysis was carried out using an in-house developed software (Novartis Helios software application, Novartis Institutes for BioMedical Research, unpublished) using the methods described by Formenko et al., 2006, DOI: 10.1016/j.cmpb.2006.01.008. Following normalization of activity values for the wells to % inhibition (% inhibition=[(high control-sample)/(high control-low control)]×100), IC50 fitting was carried out from the duplicate determinations present on each plate according to [4]. Data analysis can also be carried out using commercially available software designed to derive IC50 values using 4-parameter fits (e.g. GraphPad Prism, XL fit). The reported IC50 values are the geometrical means of at least 2 independent replicates.

The next assay concerns SW48 cells. The assay can be described thus: Proliferation assay SW48 (CellTiterGlo, 96 hours). In kind it is cell-based. The note with it: Homo sapiens.
Text: as §1, §2, §3, §4

Bounds are passed on as bounds.

WRN helicase (core helicase motif aa N517-P1238), sequence (Q14191 517-1238): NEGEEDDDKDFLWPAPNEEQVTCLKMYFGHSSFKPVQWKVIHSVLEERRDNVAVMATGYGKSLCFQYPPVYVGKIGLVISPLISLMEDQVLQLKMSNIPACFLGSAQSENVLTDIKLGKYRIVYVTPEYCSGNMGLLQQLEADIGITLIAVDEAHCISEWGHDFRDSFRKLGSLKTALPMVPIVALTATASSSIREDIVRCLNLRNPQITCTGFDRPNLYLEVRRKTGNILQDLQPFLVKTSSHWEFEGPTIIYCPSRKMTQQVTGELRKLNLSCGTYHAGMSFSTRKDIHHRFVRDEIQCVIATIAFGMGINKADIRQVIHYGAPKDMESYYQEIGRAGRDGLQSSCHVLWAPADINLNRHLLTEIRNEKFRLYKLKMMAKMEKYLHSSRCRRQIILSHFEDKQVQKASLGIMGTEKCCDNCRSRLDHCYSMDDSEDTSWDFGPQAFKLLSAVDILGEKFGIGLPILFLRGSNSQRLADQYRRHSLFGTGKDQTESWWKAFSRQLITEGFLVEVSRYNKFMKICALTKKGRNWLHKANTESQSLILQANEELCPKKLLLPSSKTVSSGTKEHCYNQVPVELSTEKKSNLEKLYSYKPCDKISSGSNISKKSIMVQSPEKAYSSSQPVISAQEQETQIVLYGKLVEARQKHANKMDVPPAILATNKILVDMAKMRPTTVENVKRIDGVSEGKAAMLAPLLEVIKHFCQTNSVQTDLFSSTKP

As for `Cc1ncnc(C(=O)N2CCN(c3c4n(c5nc(N6CCOCC6)nn5c3=O)[C@@H](C(=O)Nc3ccc(C(F)(F)F)cc3Cl)C[C@H]4C)CC2)c1O` [Example 2A, (7R,9R)—N-(2-chloro-4-(trifluoromethyl)phenyl)-6-(4-(5-hydroxy-6-methylpyrimidine-4-carbonyl)piperazin-1-yl)-7-methyl-2-morpholino-5-oxo-5,7,8,9-tetrahydropyrrolo[1,2-c][1,2,4]triazolo[1,5-a]pyrimidine-9-carboxamide], the GI50 (commonly the concentration giving 50% growth inhibition) is greater than 10 µM in the assay on DLD1-WRN-KO cells and 0.04 µM with SW48 cells. The midpoint of inhibition in assay [1], the IC50, lay at 0.02 µM.
On the same counts, the results for `Cc1ncnc(C(=O)N2CCN(c3c4n(c5nc(N6CCOCC6)nn5c3=O)[C@H](C(=O)Nc3ccc(C(F)(F)F)cc3Cl)C[C@@H]4C)CC2)c1O` [Example 2B, (7S,9S)—N-(2-chloro-4-(trifluoromethyl)phenyl)-6-(4-(5-hydroxy-6-methylpyrimidine-4-carbonyl)piperazin-1-yl)-7-methyl-2-morpholino-5-oxo-5,7,8,9-tetrahydropyrrolo[1,2-c][1,2,4]triazolo[1,5-a]pyrimidine-9-carboxamide] are greater than 10 µM, greater than 10 µM and 26 µM.
On the same counts, the results for `Cc1ncnc(C(=O)N2CCN(c3c4n(c5nc(N6CCOCC6)nn5c3=O)[C@@H](C(=O)Nc3ccc(C(F)(F)F)cc3Cl)C[C@@H]4C)CC2)c1O` [Example 2C, (7S,9R)—N-(2-chloro-4-(trifluoromethyl)phenyl)-6-(4-(5-hydroxy-6-methylpyrimidine-4-carbonyl)piperazin-1-yl)-7-methyl-2-morpholino-5-oxo-5,7,8,9-tetrahydropyrrolo[1,2-c][1,2,4]triazolo[1,5-a]pyrimidine-9-carboxamide] are greater than 10 µM, 1 µM and 0.1 µM.
In the same order, the values of `Cc1ncnc(C(=O)N2CCN(c3c4n(c5nc(N6CCOCC6)nn5c3=O)[C@H](C(=O)Nc3ccc(C(F)(F)F)cc3Cl)C[C@H]4C)CC2)c1O` [Example 2D, (7R,9S)—N-(2-chloro-4-(trifluoromethyl)phenyl)-6-(4-(5-hydroxy-6-methylpyrimidine-4-carbonyl)piperazin-1-yl)-7-methyl-2-morpholino-5-oxo-5,7,8,9-tetrahydropyrrolo[1,2-c][1,2,4]triazolo[1,5-a]pyrimidine-9-carboxamide] are greater than 10 µM, greater than 10 µM and 24 µM.
Regarding `Cc1cc(F)c(O)c(C(=O)N2CCN(c3c4n(c5nc(N6CCOCC6)nn5c3=O)[C@@H](C(=O)Nc3ccc(C(F)(F)F)cc3Cl)C[C@H]4C)CC2)n1` [Example 3A, (7R,9R)—N-(2-chloro-4-(trifluoromethyl)phenyl)-6-(4-(4-fluoro-3-hydroxy-6-methylpicolinoyl)piperazin-1-yl)-7-methyl-2-morpholino-5-oxo-5,7,8,9-tetrahydropyrrolo[1,2-c][1,2,4]triazolo[1,5-a]pyrimidine-9-carboxamide], the figures for the 50% growth inhibitory concentration (GI50) in the assay with DLD1-WRN-KO cells and in the assay with SW48 cells were greater than 10 µM and 0.04 µM, respectively. For the same molecule, the midpoint of inhibition in assay [1], the IC50, lay at 0.03 µM.
In the same order, the values of `Cc1cc(F)c(O)c(C(=O)N2CCN(c3c4n(c5nc(N6CCOCC6)nn5c3=O)[C@H](C(=O)Nc3ccc(C(F)(F)F)cc3Cl)C[C@@H]4C)CC2)n1` [Example 3B, (7S,9S)—N-(2-chloro-4-(trifluoromethyl)phenyl)-6-(4-(4-fluoro-3-hydroxy-6-methylpicolinoyl)piperazin-1-yl)-7-methyl-2-morpholino-5-oxo-5,7,8,9-tetrahydropyrrolo[1,2-c][1,2,4]triazolo[1,5-a]pyrimidine-9-carboxamide] are greater than 10 µM, greater than 10 µM and 6 µM.
In the same order, the values of `Cc1ncnc(C(=O)N2CCN(c3c4n(c5nc(C6=CCOCC6)nn5c3=O)[C@@H](C(=O)Nc3ccc(C(F)(F)F)nc3Cl)C[C@H]4C)CC2)c1O` [Example 4A, (7R,9R)—N-(2-chloro-6-(trifluoromethyl)pyridin-3-yl)-2-(3,6-dihydro-2H-pyran-4-yl)-6-(4-(5-hydroxy-6-methylpyrimidine-4-carbonyl)piperazin-1-yl)-7-methyl-5-oxo-5,7,8,9-tetrahydropyrrolo[1,2-c][1,2,4]triazolo[1,5-a]pyrimidine-9-carboxamide] are greater than 10 µM, 0.1 µM and 0.09 µM.
Take `Cc1ncnc(C(=O)N2CCN(c3c4n(c5nc(C6=CCOCC6)nn5c3=O)[C@H](C(=O)Nc3ccc(C(F)(F)F)nc3Cl)C[C@@H]4C)CC2)c1O` [Example 4B, (7S,9S)—N-(2-chloro-6-(trifluoromethyl)pyridin-3-yl)-2-(3,6-dihydro-2H-pyran-4-yl)-6-(4-(5-hydroxy-6-methylpyrimidine-4-carbonyl)piperazin-1-yl)-7-methyl-5-oxo-5,7,8,9-tetrahydropyrrolo[1,2-c][1,2,4]triazolo[1,5-a]pyrimidine-9-carboxamide]: the figures for the GI50 in the assay on DLD1-WRN-KO cells and in the assay with SW48 cells were greater than 10 µM and 6 µM, respectively. For the same molecule, the IC50 (as a rule, the concentration at which inhibition is half-maximal) in assay [1] was found to be 9 µM.
